The structures appear in SMILES notation. Activity calls are given as the source filed them. The rule behind the calls is not given here.

Our source for the IC50, inhibition and Activity values is ChEMBL document CHEMBL1147828, “Discovery of indole-containing tetracycles as a new scaffold for androgen receptor ligands” (Bioorg Med Chem Lett, 2006).

In the first experiment the target is T1, Androgen receptor (Rattus norvegicus, UniProt P15207).
T1 sequence (P15207 whole entry): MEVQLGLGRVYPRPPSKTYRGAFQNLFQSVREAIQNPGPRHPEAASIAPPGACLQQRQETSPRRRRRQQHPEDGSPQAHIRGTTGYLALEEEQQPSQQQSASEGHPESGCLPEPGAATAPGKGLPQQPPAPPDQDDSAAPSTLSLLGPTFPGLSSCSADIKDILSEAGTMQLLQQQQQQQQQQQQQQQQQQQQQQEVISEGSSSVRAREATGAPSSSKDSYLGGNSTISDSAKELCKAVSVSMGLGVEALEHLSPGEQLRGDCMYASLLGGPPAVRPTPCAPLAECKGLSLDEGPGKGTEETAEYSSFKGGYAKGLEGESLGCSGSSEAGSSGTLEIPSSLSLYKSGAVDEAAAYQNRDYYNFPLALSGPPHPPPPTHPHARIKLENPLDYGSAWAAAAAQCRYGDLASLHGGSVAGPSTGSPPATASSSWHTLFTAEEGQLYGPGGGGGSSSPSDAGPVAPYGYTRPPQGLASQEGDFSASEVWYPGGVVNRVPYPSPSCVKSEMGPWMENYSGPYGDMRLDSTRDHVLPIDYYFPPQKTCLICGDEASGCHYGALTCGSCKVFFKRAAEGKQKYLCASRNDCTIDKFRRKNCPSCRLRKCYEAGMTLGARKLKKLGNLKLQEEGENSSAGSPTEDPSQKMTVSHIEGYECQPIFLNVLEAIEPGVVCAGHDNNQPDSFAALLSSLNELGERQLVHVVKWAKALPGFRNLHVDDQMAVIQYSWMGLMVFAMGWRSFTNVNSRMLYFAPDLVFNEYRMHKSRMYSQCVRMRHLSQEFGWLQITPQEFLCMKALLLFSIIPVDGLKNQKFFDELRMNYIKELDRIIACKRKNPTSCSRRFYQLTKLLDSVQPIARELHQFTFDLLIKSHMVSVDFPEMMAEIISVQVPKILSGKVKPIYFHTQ
Assay: not given
Conditions: not given
Usually IC50 stands for the concentration at which inhibition is half-maximal. As to `Cn1c2c(c3cc(O)ccc31)CSc1cc(Br)ccc1-2`, the IC50 was determined as 2800 nM. The same measure, in the same setting: for `Cn1c2c(c3cc(O)ccc31)CSc1cc(F)ccc1-2` the value was 630 nM; for `Cn1c2c(c3cc(O)ccc31)CSc1ncccc1-2`, 52 nM; for `Cn1c2c(c3cc(O)ccc31)CSc1ccccc1-2`, 110 nM. Regarding `Cn1c2c(c3ccc(O)cc31)C(C)(C)Sc1cc(O)ccc1-2`, the IC50 was determined as 3400 nM. For `Cn1c2c(c3cc(O)ccc31)CSc1ccc(F)cc1-2`, the IC50 worked out at 110 nM. `Cn1c2c(c3cc(F)ccc31)CSc1ccccc1-2` gave an IC50 of 3700 nM. This IC50 is about 34-fold higher than that of the compound before. Still for that read-out and setting: the figure for `CC(=O)n1c2c(c3cc(O)ccc31)CSc1ccccc1-2` is 1000 nM; for `Cn1c2c(c3cc(Cl)ccc31)CSc1ccccc1-2` it is 1500 nM. The same measure, in the same setting: for `Cn1c2c(c3ccc(O)cc31)CSc1ccccc1-2` the value was 130 nM. As for `Cn1c2c(c3cc(O)ccc31)CCc1cnccc1-2`, it took 930 nM to reach half-maximal inhibition (IC50).

In turn, `Oc1ccc2[nH]c3c(c2c1)CSc1ccccc1-3` registered an IC50 of 4500 nM. In turn, `Cn1c2c(c3ccc(O)cc31)CCCc1ccccc1-2` came in with a concentration for half-maximal inhibition (IC50) of 920 nM. Still for that read-out and setting: for `Cn1c2c(c3cc(O)ccc31)CSc1cc(O)ccc1-2` the value was 2100 nM; for `Cn1c2c(c3ccc(O)cc31)CCc1ccccc1-2`, 30 nM. `Cn1c2c(c3cc(O)ccc31)CCc1ncccc1-2` had an IC50 of 29 nM. This IC50 and that of the compound before are within 1.5-fold of each other. On the same count and under the same terms, the figure for `COc1ccc2c(c1)SCc1c-2n(C)c2ccc(O)cc12` is 3000 nM; for `Cn1c2c(c3cccc(O)c31)CSc1cc(F)ccc1-2` it is 3800 nM; for `Cn1ccc2c1CCc1c-2n(C)c2ccc(O)cc12` it is 370 nM. The same measure, in the same setting: the figure for `Cn1c2c(c3cc(F)ccc31)CSc1cc(C(F)(F)F)ccc1-2` is 2800 nM; for `Cn1c2c(c3ccc(O)cc31)CCSc1ccccc1-2` it is 5000 nM; for `CCn1c2c(c3cc(O)ccc31)CSc1ccccc1-2` it is 2300 nM.

`CC(=O)Oc1ccc2c(c1)c1c(n2C)-c2ccccc2SC1` had an IC50 of 880 nM. Still for that read-out and setting: for `Cn1c2c(c3cc(O)ccc31)CCc1sccc1-2` the value was 580 nM.

Another experiment addresses T2, Androgen receptor (Rattus norvegicus) (UniProt P15207).
T2 sequence (whole entry): T1 sequence (P15207 whole entry)
The experiment can be described thus: Inhibition of rat AR-mediated reporter gene expression in COS7 cells at 3 uM. The format is cell-based. Conditions: COS-7. For orientation: In a reporter assay the amount or activity of a reporter protein is the signal.
As a reminder, the inhibition is the drop in the measured response relative to a control, in per cent. A low value points to a weak effect. `Cn1c2c(c3cc(O)ccc31)CCc1nccnc1-2` came in with an inhibition of 33%.

`Cn1c2c(c3cc(O)ccc31)CCC1=CC(=O)CCC12C` (configuration not stated) displayed an inhibition of 42%. Take `Cn1c2c(c3ccc(O)cc31)CCc1ncccc1-2`: the inhibition amounted to 29%.

Another experiment concerns the target T2, Androgen receptor (Rattus norvegicus). The experiment can be described thus: Inhibition of rat AR-mediated reporter gene expression in COS7 cells at 10 uM. The format is cell-based. The conditions noted are these: COS-7.
`Cn1c2c(c3cc(F)ccc31)CSc1cc(F)ccc1-2` had an inhibition of 48%.

The target is the same in a further experiment. The experiment can be described thus: Inhibition of rat AR-mediated reporter gene expression in COS7 cells. Conditions: COS-7.
Turning to `Cn1c2c(c3cc(C#N)ccc31)CSc1ccccc1-2`, the result was inactive. Same read-out and setting: for `Cn1c2c(c3cc(O)ccc31)C[S+]([O-])c1ccccc1-2` (configuration not stated) the value was “inactive”.

Turning to `CN(C)CCn1c2c(c3cc(O)ccc31)CSc1ccccc1-2`, the outcome was inactive. As for `CN1C(=O)CCC2(C)c3c(c4cc(O)ccc4n3C)CCC12` (configuration not stated), the result was inactive.

On to `Cn1c2c(c3ccc(O)cc31)CCC1=CC(=O)CCC12C` (configuration not stated), for which the result was inactive. The same measure, in the same setting: for `Cc1ccc2c(c1)c1c(n2C)-c2ccccc2SC1` the value was “inactive”.

Turning to `COc1ccc2c(c1)c1c(n2C)-c2ccccc2SC1`, the result was inactive. On the same count and under the same terms, for `CN1Cc2c(n(C)c3cc(O)ccc23)-c2ccccc21` the value was “inactive”; for `CN1c2ccc(O)cc2C(=O)C2CCc3ccccc3C21` (configuration not stated), “inactive”; for `Cn1c2c(c3ccccc31)CSc1ccccc1-2`, “inactive”. On the same count and under the same terms, the entry for `Cn1c2c(c3cc(O)ccc31)CS(=O)(=O)c1ccccc1-2` is “inactive”; for `Oc1ccc2nc3c(c(O)c2c1)CCc1ccccc1-3` it is “inactive”; for `Cn1c2c(c3ccc(O)cc31)SCc1ccccc1-2` it is “inactive”. Regarding `Cn1c2c(c3cc(Br)ccc31)CSc1ccccc1-2`, the outcome was inactive.
